How the values were obtained:
[1] = test system: THP-1 (Human Monocytic Leukemia) cell culture; assay: THP-1 cell growth inhibition by ZA released from lipid bilayer stent coating (Example 16); assay type: cell-based; conditions: THP-1, 96 h, 4 days
Protocol: Hydroxyapatite coated stents were further coated with the lipid film in a manner similar to that described in Examples 12 and 13, except that the film contained 2 μg of zoledronic acid (ZA). The stents were added to THP-1 (Human Monocytic Leukemia) cell culture (5×10^5 cells/mL) and compared to ZA alone added at concentration of 5 and 1 μg/mL. After 4 days, the cells in each culture were harvested and counted.

THP-1 cells = assay: THP-1 cell growth in presence of ZA lipid coated stents or molecular ZA (Examples 6 and 7); assay type: cell-based; conditions: Homo sapiens, THP-1, 96 h, 4 days of culture
Protocol: To monitor cell growth in the presence of liposomes containing ZA, 5×10^5 THP-1 cells are plated into 24—well cluster plates (Corning Inc.) in complete RPMI-1640 medium at 1 mL volume. About 3-4 hours later, the lipid coated stents of Example 5 are added into the THP-1 cell culture (5×10^5 cells/mL). The cells in the presence of medium alone or treated with empty liposomes (no drug) served as a control. ZA in molecular form was added for comparison at a concentration of 5 and 1 μg/mL. After 4 days of culture, the cells in each culture were harvested and counted using a hemocytometer; viability was evaluated by trypan blue exclusion method.
The two sets of samples were placed in cell cultures containing THP-1 macrophage type cells. HAp coated stents impregnated with molecular ZA (configuration B) are placed in 2 ml PBS dissolution media and rotated at a speed of 20 rpm at 37.2° C. Samples are taken at various time intervals and analyzed using HPLC.

What does the source list for `O=P(O)(O)C(O)(Cn1ccnc1)P(=O)(O)O` [ZA, zoledronic acid]?
inhibition at 1 µg/mL ([1]; 1 μg/mL): 0.6%; inhibition at 5 µg/mL ([1]; 5 μg/mL): 20%; inhibition at 1 µg/mL (THP-1 cells; 1 μg/mL): 0.6%; inhibition at 5 µg/mL (THP-1 cells; 5 μg/mL): 20%

Source: patent publication US20080181928A1, “COATINGS FOR IMPLANTABLE MEDICAL DEVICES FOR LIPOSOME DELIVERY” (MIV Therapeutics, Inc., priority 2006, published 2008)
